Test results: article PMC4131466, “Antidepressant Fluoxetine Modulates the In Vitro Inhibitory Activity of Buffalo Brain Cystatin: A Thermodynamic Study Using UV and Fluorescence Techniques” (Biotechnology Research International, 2014)

Target: T1, buffalo brain cystatin (BC)
T1 construct: gene CST3
Test: intrinsic fluorescence quenching, log-log plot
Type: binding, Bubalus bubalis
Details: 1 μM BC, 50 mM sodium phosphate pH 7.5, 298 K, 30 min incubation, excitation 280 nm; n = 0.79
Source text: intrinsic fluorescence quenching, log-log plot on buffalo brain cystatin (BC)

Q: Which “K (binding constant) mol^-1” value does the source give for `CNCCC(Oc1ccc(C(F)(F)F)cc1)c1ccccc1` (stereo not shown) [Fluoxetine] here?
A: Its value is 5.0317e+06 mol⁻¹.
